Test results as given in US12344616B2, “Factor XIa inhibitors” (Merck Sharp & Dohme LLC, priority 2018, dated 2025).

What was measured:
[1] = Rat screening IV/PO pharmacokinetics; format: in vivo; conditions: male, plasma, mean residence time, IV/PO procedure
Method: Plasma pharmacokinetic parameters for clearance, volume of distribution, half-life, mean residence time (MRT) and oral bioavailability (% F)—were determined in rats from oral administration and IV administration studies. 4 male rats, typically weighing 225-260 gram, were fasted overnight prior to dosing. Compounds were prepared for oral and IV dosing by addition to a vehicle, depending on the dose used. For a typical preparation, 1 mg per mL (IV) or 1.5 mg per mL (oral) of test compound was added to vehicle comprised of 20% dimethyl sulfoxide (DMSO), 60% polyethylene glycol 400 (PEG400) and 20% water. IV formulation was administered to 2 rats via pre-cannulated jugular vein, and oral dosing was administered to 2 rats via oral gavage. Blood was collected by pre-cannulated artery, typically at predose, 2 min, 8 min, 15 min, 30 min, and 1, 2, 4, 6, and 8 hr postdose for IV, and at predose, 15 min, 30 min, and 1, 2, 4, 6, 8 hr for oral dosing. Samples were collected in K2EDTA tubes, stored on ice, and centrifuged. Plasma was transferred to a micro titer plate and stored at −70° C. until analysis. Plasma samples were extracted using protein precipitation and analyzed by liquid chromatography separation followed by mass spec detection (LCMS/MS), using a standard curve for each compound. Plasma pharmacokinetic parameters were calculated for IV and oral dosing data by non-compartmental methods. Oral bioavailability was determined as the ratio of the dose-normalized plasma area under the curve (AUC) following oral dosing vs. IV dosing.

[2] = Dog screening IV/PO pharmacokinetics; format: in vivo; conditions: male, plasma, mean residence time, IV/PO procedure
Method: Plasma pharmacokinetic parameters for clearance, volume of distribution, half-life, mean residence time (MRT) and oral bioavailability were determined in dogs from oral administration and IV administration studies. 4 male dogs, typically weighing 8-12 kilograms, were fasted overnight prior to dosing. Compounds were prepared for oral and IV dosing by addition to a vehicle, depending on the dose used. For a typical preparation, 1 mg per mL (IV) or 1.5 mg per mL (oral) of test compound was added to vehicle comprised of 20% dimethyl sulfoxide (DMSO), 60% polyethylene glycol 400 (PEG400) and 20% water. IV formulation was administered to 2 dogs via the saphenous or cephalic vein, and oral dosing was administered to 2 dogs via oral gavage. Blood was collected by the cephalic or jugular vein, typically at predose, 2 min, 8 min, 15 min, 30 min, and 1, 2, 4, 6, 8 and 24 hr postdose for IV, and at predose, 15 min, 30 min, and 1, 2, 4, 6, 8, and 24 hr for oral dosing. Samples were collected in K2EDTA tubes, stored on ice, and centrifuged. Plasma was transferred to a micro titer plate and stored at −70° C. until analysis. Plasma samples were extracted using protein precipitation and analyzed by liquid chromatography separation followed by mass spec detection (LCMS/MS), using a standard curve for each compound. Plasma pharmacokinetic parameters were calculated for IV and oral dosing data by non-compartmental methods. Oral bioavailability was determined as the ratio of the dose-normalized plasma area under the curve (AUC) following oral dosing vs. IV dosing.

[3] = molecular target: human tissue kallikrein (Homo sapiens (Human), UniProt P06870); assay: Inhibition of tissue kallikrein enzymatic activity (tKal); format: biochemical; conditions: human tissue kallikrein 5 nM, N-acetyl-KPR-AFC substrate, 25° C.
Method: Compounds were assayed with human tissue kallikrein (RayBiotech, Cat #228-10996 or Evotec, final concentration 5 nM) in 50 mM HEPES, 150 mM NaCl, 5 mM CaCl2, 0.1% PEG pH 7.4 at 25° C. in a Corning 3575 non-binding surface microplate. Compounds were tested in 10-point dose titrations starting at 166.67 uM with a 3-fold dilution series. Tissue kallikrein enzymatic activity was determined by measuring the rate of cleavage of N-acetyl-KPR-AFC substrate (Sigma, Cat #C6608, final concentration 100 uM) by continuously monitoring the fluorescence at 400/505 nm using a Tecan Safire plate-reader. The initial reaction rates (0 to 20 minutes) were used to determine percent inhibition. The % Inhibition for each data point was recalculated from the RFU/min data and analyzed using the log(inhibitor) vs. response four parameters equation with the GraphPad Prism software.

[4] = Dog cassette IV pharmacokinetics; format: in vivo; conditions: male, plasma, mean residence time, cassette IV procedure
Method: Plasma pharmacokinetic parameters for clearance, volume of distribution, half-life, and mean residence time (MRT) were determined in dogs from IV cassette administration studies. 2 male dogs, typically weighing 8-12 kilograms, were fasted overnight prior to dosing. Compounds were prepared for IV dosing by addition to a vehicle, depending on the dose used. For a typical preparation, 1 mg per mL (IV) of up to 5 test compounds were added to vehicle comprised of 20% dimethyl sulfoxide (DMSO), 60% polyethylene glycol 400 (PEG400) and 20% water. IV formulation was administered to 2 dogs via the saphenous or cephalic vein. Blood was collected by the cephalic or jugular vein, typically at predose, 2, 8, 15, 30 min, 1, 2, 4, 6, 8 and 24 hr postdose. Samples were collected in K2EDTA tubes, stored on ice, and centrifuged. Plasma was transferred to a micro titer plate and stored at −70° C. until analysis. Plasma samples were extracted using protein precipitation and analyzed by liquid chromatography separation followed by mass spec detection (LCMS/MS), using a standard curve for each compound. Plasma pharmacokinetic parameters were calculated by non-compartmental methods.

Chain of human tissue kallikrein (P06870 25-262): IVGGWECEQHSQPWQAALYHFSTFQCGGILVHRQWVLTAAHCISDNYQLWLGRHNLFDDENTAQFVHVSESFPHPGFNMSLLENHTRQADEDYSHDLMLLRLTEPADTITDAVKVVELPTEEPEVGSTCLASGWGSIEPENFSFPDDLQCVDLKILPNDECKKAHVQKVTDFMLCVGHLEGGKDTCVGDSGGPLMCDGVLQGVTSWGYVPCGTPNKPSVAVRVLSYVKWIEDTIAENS

Structure (SMILES)	MRT [1] [h]	MRT [2] [h]	IC50 [3] [µM]	MRT [4] [h]
COC(=O)Nc1ccc2c(c1)NC(=O)C(C)(C)CCC[C@H](c1ccc(-c3c(-n4cc(C(F)(F)F)cn4)ccc(F)c3F)c[n+]1[O-])c1nc-2c(C)[nH]1 [Example 1, (R,Z)-5-(2,3-difluoro-6-(4-(trifluoromethyl)-1H-pyrazol-1-yl)phenyl)-2-(2^4-((methoxycarbonyl)amino)-1^5,5,5-trimethyl-4-oxo-1^1H-3-aza-1(4,2)-imidazola-2 (1,2)-benzenacyclononaphane-9-yl)pyridine 1-oxide]	5.8	10	> 167	
COC(=O)Nc1ccc2c(c1)NC(=O)C(C)(C)CCC[C@H](c1ccc(-c3cc(F)ccc3-n3cc(C(F)(F)F)cn3)c[n+]1[O-])c1nc-2c(C)[nH]1 [Example 2, (R.Z)-5-(5-fluoro-2-(4-(trifluoromethyl)-1H-pyrazol-1-yl)phenyl)-2-(2^4-((methoxycarbonyl)amino)-1^5,5,5-trimethyl-4-oxo-1^1H-3-aza-1(4,2)-imidazola-2(1,2)-benzenacyclononaphane-9-yl)pyridine 1-oxide]	5.7	11	90	
COC(=O)Nc1ccc2c(c1)NC(=O)C(C)(C)CCC[C@H](c1ccc(-c3cc(Cl)ccc3-n3cc(C(F)(F)F)cn3)c[n+]1[O-])c1nc-2c(C)[nH]1 [Example 3]	11		> 167	10
COC(=O)Nc1ccc2c(c1)NC(=O)C(C)(C)CCC[C@H](c1ccc(-c3cc(Cl)ccc3-n3cc(C(F)F)cn3)c[n+]1[O-])c1nc-2c(C)[nH]1 [Example 4, (R,Z)-5-(5-chloro-2-(4-(difluoromethyl)-1H-pyrazol-1-yl)phenyl)-2-(2^4-((methoxycarbonyl)amino)-1^5,5,5-trimethyl-4-oxo-1^1H-3-aza-1(4,2)-imidazola-2(1,2)-benzenacyclononaphane-9-yl)pyridine 1-oxide]	2.7	8.7	> 167	
COC(=O)Nc1ccc2c(c1)NC(=O)C(C)(C)CCC[C@H](c1ccc(-c3cc(F)ccc3-c3cnn(C(F)(F)F)c3)c[n+]1[O-])c1nc-2c(C)[nH]1 [Example 5, (R,Z)-5-(5-fluoro-2-(1-(trifluoromethyl)-1H-pyrazol-4-yl)phenyl)-2-(2^4-((methoxycarbonyl)amino)-1^5,5,5-trimethyl-4-oxo-1^1H-3-aza-1(4,2)-imidazola-2(1,2)-benzenacyclononaphane-9-yl)pyridine 1-oxide]	4.5	10	> 167	
COC(=O)Nc1ccc2c(c1)NC(=O)C(C)(C)CCC[C@H](c1ccc(-c3cc(Cl)cnc3OC(F)F)c[n+]1[O-])c1nc-2c(C)[nH]1 [Example 6, (R,Z)-5′-chloro-2′-(difluoromethoxy)-6-(2^4-((methoxycarbonyl)amino)-1^5,5,5-trimethyl-4-oxo-1^1H-3-aza-1(4,2)-imidazola-2(1,2)-benzenacyclononaphane-9-yl)-[3,3′-bipyridine]1-oxide]	5.6	14.5		
